We go through nine compounds from patent US4740233A, “Substituted 1,2,4-triazolo[1,5-a]-pyrimidine-2-sulfonamides and compositions and methods of controlling undesired vegetation and suppressing the nitrification of ammonium nitrogen in soil” (The Dow Chemical Company, priority 1986, dated 1988).

Molecules are shown by their SMILES.

Holding throughout (test): Preemergent control of plant species
One experiment has as its system cotton. It is filed as in vivo, Gossypium spp. The following applies: 0.25 lb/acre; for plant injury at 280.212 g/ha: Gossypium hirsutum, pre-emergence, 336 h, read-out: percent preemergent control. The method in brief: (§1)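 Seeds sown in agricultural soil in greenhouse beds, then aqueous-emulsion compositions applied uniformly to the bed surface at listed rates. Beds kept two weeks under greenhouse growth conditions with watering. Control expressed as growth reduction versus water-treated beds of the same species.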

Another experiment concerns rape. It is filed as in vivo, Brassica napus. The following applies: 0.25 lb/acre; for plant injury at 280.212 g/ha: Brassica napus, pre-emergence, 336 h, read-out: percent preemergent control. The procedure:
The seeds of various species of plants were planted in beds of good agricultural soil in a greenhouse. A number of compositions of the present invention, generally in the nature of an aqueous emulsion, were applied at rates listed in the table so as to deposit a predetermined amount of active ingredients uniformly throughout the surface of the bed. Another seed bed was treated only with water to serve as a control. After treatment the seed beds were maintained for two weeks under greenhouse conditions conducive for good plant growth and watered as necessary. Control refers to the reduction in growth compared to the observed results of the same untreated species.

A further experiment concerns soybean. Type of experiment: in vivo, Glycine max. The note with it: 0.25 lb/acre; for plant injury at 280.212 g/ha: Glycine max, pre-emergence, 336 h, read-out: percent preemergent control. The method in brief:
as §1

The test system of another experiment is sugar beet. Type of experiment: in vivo, Beta saccharifera. The note with it: 0.25 lb/acre; for plant injury at 280.212 g/ha: Beta vulgaris, pre-emergence, 336 h, read-out: percent preemergent control. The method in brief:
as §1

The next experiment has as its system jimsonweed. Type of experiment: in vivo, Datura stramonium. The note with it: 0.25 lb/acre; for pest or weed control at 280.212 g/ha: Datura stramonium, pre-emergence, 336 h, read-out: percent preemergent control. The method in brief: as §1
Another experiment relates to annual morning glory. It is filed as in vivo, Ipomoea spp. The following applies: 0.25 lb/acre; for pest or weed control at 280.212 g/ha: Ipomoea, pre-emergence, 336 h, read-out: percent preemergent control. The method in brief: as §1
The next experiment deals with velvetleaf. It is filed as in vivo, Abutilon theophrasti. The note with it: 0.25 lb/acre; for pest or weed control at 280.212 g/ha: Abutilon theophrasti, pre-emergence, 336 h, read-out: percent preemergent control. The method in brief: as §1
The test system of the next experiment is corn. Type of experiment: in vivo, Zea mays. The note with it: 0.25 lb/acre; for plant injury at 280.212 g/ha: Zea mays, pre-emergence, 336 h, read-out: percent preemergent control. The method in brief: as §1
The next experiment has as its system rice. It is filed as in vivo, Oryza sativa. The following applies: 0.25 lb/acre; for plant injury at 280.212 g/ha: Oryza sativa, pre-emergence, 336 h, read-out: percent preemergent control. The method in brief:
as §1

A further experiment relates to sorghum. Type of experiment: in vivo, Sorghum vulgare. The following applies: 0.25 lb/acre; for plant injury at 280.212 g/ha: Sorghum, pre-emergence, 336 h, read-out: percent preemergent control. The method in brief:
as §1

A further experiment deals with wheat. It is filed as in vivo, Triticum aestivum. The note with it: 0.25 lb/acre; for plant injury at 280.212 g/ha: Triticum aestivum, pre-emergence, 336 h, read-out: percent preemergent control. The method in brief: as §1
A further experiment relates to barnyardgrass. It is filed as in vivo, Echinochloa crusgalli. The note with it: 0.25 lb/acre; for pest or weed control at 280.212 g/ha: Echinochloa crus-galli, pre-emergence, 336 h, read-out: percent preemergent control. The method in brief: as §1
For another experiment, the system named is johnson grass. It is filed as in vivo, Sorghum halepense. The note with it: 0.25 lb/acre; for pest or weed control at 280.212 g/ha: Sorghum halepense, pre-emergence, 336 h, read-out: percent preemergent control. The method in brief: as §1
For another experiment, the system named is yellow foxtail. Type of experiment: in vivo, Setaria lutescens. The note with it: 0.25 lb/acre; for pest or weed control at 280.212 g/ha: Setaria, pre-emergence, 336 h, read-out: percent preemergent control. The method in brief: as §1
The next experiment concerns yellow nutsedge. It is filed as in vivo, Cyperus esculentus. The following applies: 0.25 lb/acre; for pest or weed control at 280.212 g/ha: Cyperus, pre-emergence, 336 h, read-out: percent preemergent control. The method in brief: as §1

Consider `COc1nc2nc(S(=O)(=O)Nc3ccccc3C(F)(F)F)nn2cc1C` [Compound 217], for which the plant injury at 280.212 g/ha is 100% in the experiment with cotton; 100% in the experiment on rape; 100% with soybean; 100% with sugar beet; 50% in the experiment with corn; 90% in the experiment on rice. For the same compound, the plant injury at 280.212 g/ha with sorghum and in the experiment on wheat was 100% each time. Moreover, the pest or weed control at 280.212 g/ha in the experiment with jimsonweed stood at 100%; in the experiment on annual morning glory, 100%; in the experiment with velvetleaf, 100%; in the experiment on barnyardgrass, 90%; with johnson grass it was 100%; with yellow foxtail, 50%. Also, in the experiment with yellow nutsedge, the pest or weed control at 280.212 g/ha was 70%.
On to `O=S(=O)(Nc1c(F)cccc1F)c1nc2ncccn2n1` [Compound 138], for which the plant injury at 280.212 g/ha is 100% in the experiment with cotton; 100% in the experiment on rape; 50% in the experiment on soybean; 90% in the experiment with sugar beet; 30% in the experiment on corn; 50% in the experiment on rice. The plant injury at 280.212 g/ha came to 50% with sorghum and 10% in the experiment with wheat. For the same compound, the pest or weed control at 280.212 g/ha with jimsonweed stood at 20%; with annual morning glory, 20%; in the experiment with velvetleaf, 90%; in the experiment on barnyardgrass it was 0%; in the experiment with johnson grass, 90%; in the experiment with yellow foxtail, 90%. Besides, the pest or weed control at 280.212 g/ha in the experiment with yellow nutsedge was determined as 80%.
On to `CCCCCCCCCC(=O)N(c1c(F)cccc1F)S(=O)(=O)c1nc2nc(C)ccn2n1` [Compound 287], for which the plant injury at 280.212 g/ha with cotton came to 100%; in the experiment with rape, 100%; with soybean, 30%; in the experiment with sugar beet, 100%; in the experiment with corn, 60%; in the experiment with rice, 100%. Also, the plant injury at 280.212 g/ha in the experiment with sorghum amounted to 100%; with wheat it was 70%. The pest or weed control at 280.212 g/ha with jimsonweed, with annual morning glory, in the experiment on velvetleaf, with barnyardgrass, with johnson grass and in the experiment on yellow foxtail was 100% throughout. For the same compound, the pest or weed control at 280.212 g/ha with yellow nutsedge came to 100%.
With `Cc1ccn2nc(S(=O)(=O)Nc3c(F)cccc3[N+](=O)[O-])nc2n1` [Compound 173], the percent preemergent control in the experiment on cotton is recorded as 50%; in the experiment on rape, 80%; in the experiment with soybean it was 0%; in the experiment on sugar beet, 90%; in the experiment with jimsonweed it was 0%; with annual morning glory, 0%. Besides, the percent preemergent control in the experiment on velvetleaf was determined as 0%; in the experiment on corn, 30%; in the experiment with rice it was 70%; in the experiment on sorghum it was 30%; with wheat, 20%; in the experiment with barnyardgrass, 30%. Further, the percent preemergent control with johnson grass came out at 70%; with yellow foxtail it was 50%; in the experiment on yellow nutsedge it was 0%.
Turning to `COc1nc2nc(S(=O)(=O)Nc3c(F)ccc(C)c3F)nn2cc1C` [Compound 219], the plant injury at 280.212 g/ha in the experiment on cotton came out at 100%; in the experiment with rape it was 100%; with soybean it was 100%; with sugar beet, 100%; with corn, 100%; with rice it was 50%. In addition, the plant injury at 280.212 g/ha in the experiment with sorghum and in the experiment with wheat was 100% throughout. The pest or weed control at 280.212 g/ha came to 100% in the experiment on jimsonweed; 100% with annual morning glory; 100% with velvetleaf; 100% in the experiment with barnyardgrass; 10% in the experiment with johnson grass; 100% with yellow foxtail. For the same compound, the pest or weed control at 280.212 g/ha in the experiment with yellow nutsedge was 100%.
Regarding `Cc1cc(C(F)(F)F)n2nc(S(=O)(=O)Nc3c(Cl)cccc3Cl)nc2n1` [Compound 227], the plant injury at 280.212 g/ha amounted to 60% with cotton; 100% in the experiment with rape; 0% in the experiment with soybean; 100% in the experiment with sugar beet; 40% in the experiment with corn; 50% in the experiment on rice. Further, the results for the plant injury at 280.212 g/ha in the experiment on sorghum and in the experiment on wheat were 100% and 90%, respectively. Further, the pest or weed control at 280.212 g/ha in the experiment with jimsonweed worked out at 100%; in the experiment with annual morning glory, 70%; in the experiment with velvetleaf, 30%; with barnyardgrass, 50%; with johnson grass, 70%; with yellow foxtail, 90%. The pest or weed control at 280.212 g/ha in the experiment with yellow nutsedge was 100%.
As to `Cc1cc(C(F)(F)F)n2nc(S(=O)(=O)Nc3c(Cl)ccc(C)c3Cl)nc2n1` [Compound 229], the plant injury at 280.212 g/ha with cotton came to 100%; in the experiment with rape it was 100%; in the experiment with soybean it was 30%; in the experiment on sugar beet, 100%; in the experiment with corn, 40%; in the experiment on rice, 10%. Also, the plant injury at 280.212 g/ha with sorghum was 90%; with wheat, 0%. In addition, the pest or weed control at 280.212 g/ha turned out to be 90% in the experiment on jimsonweed; 100% in the experiment with annual morning glory; 90% with velvetleaf; 0% in the experiment on barnyardgrass; 0% in the experiment on johnson grass; 0% in the experiment with yellow foxtail. Besides, the pest or weed control at 280.212 g/ha in the experiment on yellow nutsedge is 100%.
With `Cc1cc(C(F)(F)F)n2nc(S(=O)(=O)Nc3c(F)ccc(C)c3F)nc2n1` [Compound 230], the plant injury at 280.212 g/ha with cotton turned out to be 100%; in the experiment with rape it was 90%; in the experiment with soybean it was 20%; in the experiment with sugar beet, 100%; with corn, 90%; in the experiment on rice, 50%. For the same compound, the results for the plant injury at 280.212 g/ha with sorghum and in the experiment on wheat were 100% and 30%, respectively. For the same compound, the pest or weed control at 280.212 g/ha in the experiment with jimsonweed came to 100%; in the experiment on annual morning glory it was 90%; in the experiment with velvetleaf, 90%; in the experiment on barnyardgrass it was 100%; in the experiment on johnson grass, 90%; in the experiment on yellow foxtail, 80%. Moreover, in the experiment with yellow nutsedge, the pest or weed control at 280.212 g/ha came out at 100%.
In the case of `Cc1ccn2nc(S(=O)(=O)N(C(=O)CC(C)(C)C)c3c(F)cccc3F)nc2n1` [Compound 278], the plant injury at 280.212 g/ha came to 100% in the experiment on cotton; 100% in the experiment on rape; 70% with soybean; 100% in the experiment on sugar beet; 60% with corn; 90% in the experiment on rice. Besides, the plant injury at 280.212 g/ha was determined as 100% with sorghum and 70% in the experiment on wheat. The pest or weed control at 280.212 g/ha in the experiment with jimsonweed amounted to 100%; in the experiment with annual morning glory, 100%; with velvetleaf, 100%; with barnyardgrass, 100%; in the experiment on johnson grass, 90%; in the experiment on yellow foxtail, 100%. The pest or weed control at 280.212 g/ha in the experiment with yellow nutsedge is 100%.
